Converted amounts (≈) assume the structure as drawn. “And” between values parts separate entries of the source, which are not always exact repeats. Equal values may be shown once.
Columns and labels:
Test in all cases: ≥ marks a high value that may be exact or a test limit, other limits are often not marked, values filed in µg/mL are converted to µM
[1] = system: Acinetobacter baumannii 97830
[2] = system: Acinetobacter baumannii 9931
[3] = system: Acinetobacter baumannii ATCC 19606
[4] = system: Bacillus subtilis ATCC 23857
Escherichia coli 780 = system: Escherichia coli 780
Escherichia coli 804 = system: Escherichia coli 804
[5] = system: Klebsiella pneumoniae ATCC 700603
[6] = system: Pseudomonas aeruginosa 50
[7] = system: Pseudomonas aeruginosa 73
[8] = system: Pseudomonas aeruginosa ATCC 27853
[9] = system: Pseudomonas aeruginosa ATCC 9027
[10] = system: Staphylococcus aureus 113
Staphylococcus aureus 75 = system: Staphylococcus aureus 75
[11] = system: Staphylococcus aureus ATCC 29213
[12] = system: Staphylococcus epidermidis ATCC 12228
[13] = system: Bacillus subtilis DSM 347
Escherichia coli BL21AI = system: Escherichia coli BL21AI
Escherichia coli DC2 = system: Escherichia coli DC2
[14] = system: Escherichia coli DSM 1103
[15] = system: Klebsiella pneumoniae DSM 681
[16] = system: Micrococcus luteus ATCC 10240
[17] = system: Pseudomonas aeruginosa PAK
Staphylococcus aureus = system: Staphylococcus aureus
[18] = system: Streptococcus gordonii Challis DL1
[19] = system: Streptococcus mitis ATCC 903
[20] = system: Streptococcus mutans UA159
[21] = system: Streptococcus sanguinis NY101
Bacillus subtilis DELTA = system: Bacillus subtilis DELTA
Candida parapsilosis = system: Candida parapsilosis
[22] = system: Escherichia coli DH5alpha
[23] = system: Pseudomonas aeruginosa PAO1
[24] = system: Zymomonas mobilis ATCC 10988
[25] = system: Escherichia coli ATCC 25922
[26] = system: Staphylococcus aureus ATCC 25923
[27] = system: Bacillus licheniformis X39
[28] = system: Psychrobacter faecalis X29
[29] = system: Rhodococcus rhodochrous X15
Serratia rubidaea X01 = system: Serratia rubidaea X01
[30] = system: Staphylococcus aureus ATCC 2592
[31] = system: Staphylococcus carnosus KHS

CC(C)[C@H](N)C(=O)N[C@@H](CCCN=C(N)N)C(=O)N[C@@H](Cc1c[nH]c2ccccc12)C(=O)N[C@@H](Cc1c[nH]c2ccccc12)C(=O)N[C@@H](Cc1c[nH]c2ccccc12)C(=O)N[C@@H](CCCN=C(N)N)C(=O)N[C@H](C(N)=O)C(C)C [VRWWWRV]
MIC [1]: ≥ 128 µM | MIC [2]: ≥ 128 µM | MIC [3]: 128 µM (≈ 139 µg/mL) | MIC [4]: 8 µM (≈ 8.69 µg/mL) | MIC (Escherichia coli 780): ≥ 64 µM | MIC (Escherichia coli 804): ≥ 64 µM | MIC [5]: 64 µM (≈ 69.5 µg/mL) | MIC [6]: ≥ 64 µM | MIC [7]: ≥ 128 µM | MIC [8]: 64 µM (≈ 69.5 µg/mL) | MIC [9]: 64 µM (≈ 69.5 µg/mL) | MIC [10]: ≥ 32 µM | MIC (Staphylococcus aureus 75): ≥ 32 µM | MIC [11]: 32 µM (≈ 34.8 µg/mL) | MIC [12]: 8 µM (≈ 8.69 µg/mL)

CC[C@H](C)[C@H](NC(=O)[C@H](Cc1ccc(O)cc1)NC(=O)[C@@H](NC(=O)[C@@H]1CCCN1C(=O)[C@H](CCCCN)NC(=O)[C@H](CC(N)=O)NC(=O)[C@H](CC(N)=O)NC(=O)CN)C(C)C)C(=O)N1CCC[C@H]1C(=O)N[C@@H](CCCN=C(N)N)C(=O)N1CCC[C@H]1C(=O)N[C@@H](CCCN=C(N)N)C(=O)N1CCC[C@H]1C(=O)N1CCC[C@H]1C(=O)N[C@@H](Cc1cnc[nH]1)C(=O)N1CCC[C@H]1C(=O)N[C@@H](CCCN=C(N)N)C(=O)N[C@@H](CC(C)C)C(=O)N[C@H](C(N)=O)C(C)C [GNNKPVYIPRPRPPHPRLV]
MIC [13]: ≥ 56.6 µM | MIC (Escherichia coli BL21AI): 3.54 µM (≈ 7.81 µg/mL) | MIC (Escherichia coli DC2): 3.54 µM (≈ 7.81 µg/mL) | MIC [14]: 1.77 µM (≈ 3.9 µg/mL) | MIC [15]: 14.2 µM (≈ 31.2 µg/mL) | MIC [16]: 0.109 µM (≈ 0.24 µg/mL)

CC[C@H](C)[C@H](NC(=O)[C@H](Cc1ccccc1)NC(=O)[C@H](Cc1cnc[nH]1)NC(=O)[C@H](CCCCN)NC(=O)[C@@H](NC(=O)[C@@H](N)Cc1ccccc1)[C@@H](C)CC)C(=O)N[C@@H](Cc1cnc[nH]1)C(=O)N[C@@H](CCCN=C(N)N)C(=O)N[C@@H](Cc1ccccc1)C(=O)NCC(=O)NCC(=O)NCC(=O)N[C@@H](Cc1ccccc1)C(=O)N[C@@H](CCCCN)C(=O)N[C@@H](CCCCN)C(=O)N[C@@H](Cc1ccccc1)C(=O)N[C@@H](Cc1c[nH]c2ccccc12)C(=O)N[C@@H](CCCCN)C(=O)N[C@@H](Cc1c[nH]c2ccccc12)C(=O)N[C@@H](Cc1ccccc1)C(=O)N[C@@H](CCCN=C(N)N)C(=O)N[C@@H](CCCN=C(N)N)C(=O)N[C@@H](Cc1ccccc1)C(N)=O [FIKHFIHRFGGGFKKFWKWFRRF]
MIC [17]: 20.3 µM (≈ 62.5 µg/mL) | MIC (Staphylococcus aureus): 5.21 µM (≈ 16 µg/mL) | MIC [18]: 20.3 µM (≈ 62.5 µg/mL) | MIC [19]: 10.4 µM (≈ 32 µg/mL) | MIC [20]: 1.3 µM (≈ 4 µg/mL) | MIC [21]: 5.21 µM (≈ 16 µg/mL)

CC[C@H](C)[C@H](NC(=O)[C@H](Cc1ccc(O)cc1)NC(=O)[C@@H](NC(=O)[C@@H]1CCCN1C(=O)[C@H](CCCN=C(N)N)NC(=O)[C@H](CC(N)=O)NC(=O)[C@H](CC(N)=O)NC(=O)CNC(C)=O)C(C)C)C(=O)N1CCC[C@H]1C(=O)N[C@@H](CCCN=C(N)N)C(=O)N1CCC[C@H]1C(=O)N[C@@H](CCCN=C(N)N)C(=O)N1CCC[C@H]1C(=O)N1CCC[C@H]1C(=O)N[C@@H](Cc1cnc[nH]1)C(=O)N1CCC[C@H]1C(=O)N[C@@H](CCCN=C(N)N)C(=O)N[C@@H](CC(C)C)C(N)=O [GNNRPVYIPRPRPPHPRL]
MIC [13]: ≥ 58.5 µM | MIC (Escherichia coli BL21AI): 1.49 µM (≈ 3.25 µg/mL) | MIC (Escherichia coli DC2): 1.83 µM (≈ 3.97 µg/mL) | MIC [14]: 1.83 µM (≈ 3.97 µg/mL) | MIC [15]: 1.83 µM (≈ 3.97 µg/mL) | MIC [16]: 0.913 µM (≈ 1.99 µg/mL)

CC[C@H](C)[C@H](NC(=O)[C@H](CCCCN)NC(=O)[C@H](CC(C)C)NC(=O)[C@H](CC(C)C)NC(=O)CN)C(=O)N[C@H](C(=O)N[C@@H](CCCCN)C(=O)N[C@@H](CCCCN)C(=O)N[C@@H](CC(C)C)C(=O)N[C@@H](CC(C)C)C(N)=O)[C@@H](C)CC [GLLKIIKKLL]
MIC (Bacillus subtilis DELTA): 6.15 µM (≈ 6.99 µg/mL) | MIC (Candida parapsilosis): 6.15 µM (≈ 6.99 µg/mL) | MIC [22]: ≥ 87.8 µM | MIC [23]: 2.63 µM (≈ 3 µg/mL) | MIC [24]: 13.2 µM (≈ 15 µg/mL)

NCC(=O)N[C@@H](CCCN=C(N)N)C(=O)N[C@@H](Cc1c[nH]c2ccccc12)C(=O)N[C@@H](Cc1c[nH]c2ccccc12)C(=O)N[C@@H](Cc1c[nH]c2ccccc12)C(=O)N[C@@H](CCCN=C(N)N)C(=O)NCC(N)=O [GRWWWRG]
MIC [1]: ≥ 128 µM | MIC [2]: ≥ 128 µM | MIC [3]: > 128 µM | MIC [4]: 16 µM (≈ 16 µg/mL) | MIC (Escherichia coli 780): ≥ 128 µM | MIC (Escherichia coli 804): ≥ 128 µM | MIC [25]: > 128 µM | MIC [5]: > 128 µM | MIC [6]: ≥ 128 µM | MIC [7]: ≥ 128 µM | MIC [8]: > 128 µM | MIC [9]: > 128 µM | MIC [10]: ≥ 64 µM | MIC (Staphylococcus aureus 75): ≥ 64 µM | MIC [26]: 64 µM and 128 µM | MIC [11]: 8 µM (≈ 8.02 µg/mL) | MIC [12]: 64 µM (≈ 64.1 µg/mL)

CC[C@H](C)[C@H](NC(=O)CNC(=O)[C@H](CCCCN)NC(=O)[C@@H](NC(=O)[C@H](CC(C)C)NC(=O)CNC(=O)[C@H](CC(N)=O)NC(=O)[C@H](CCCCN)NC(=O)[C@@H](NC(=O)[C@H](Cc1c[nH]c2ccccc12)NC(=O)[C@H](CO)NC(=O)CNC(=O)[C@H](CCCCN)NC(=O)CNC(=O)[C@H](CCCCN)NC(=O)[C@H](CCCCN)NC(=O)[C@H](Cc1ccccc1)NC(=O)[C@H](CO)NC(=O)[C@@H](NC(=O)[C@@H](N)CCCN=C(N)N)[C@@H](C)CC)[C@@H](C)CC)[C@@H](C)CC)C(=O)N[C@@H](CCCCN)C(=O)NCC(=O)N[C@@H](CC(C)C)C(=O)NCC(=O)N[C@@H](CCCCN)C(=O)N[C@@H](CCC(=O)O)C(=O)N[C@H](C(=O)N[C@@H](CO)C(=O)N[C@@H](CC(C)C)C(=O)N[C@@H](CC(=O)O)C(=O)N[C@H](C(=O)N[C@H](C(=O)N[C@@H](CCCN=C(N)N)C(=O)N[C@H](C(=O)NCC(=O)N[C@H](C(=O)N[C@@H](CC(=O)O)C(=O)N[C@H](C(=O)N[C@@H](C)C(=O)NCC(=O)N[C@H]1CSSC[C@@H](C(=O)O)NC(=O)[C@H](CCC(=O)O)NC(=O)CNC(=O)[C@H](CCCCN)NC(=O)[C@H]([C@@H](C)CC)NC(=O)[C@H](CCCCN)NC1=O)[C@@H](C)CC)[C@@H](C)CC)[C@@H](C)O)[C@@H](C)CC)C(C)C)[C@@H](C)CC [RISFKKGKGSWIKNGLIKGIKGLGKEISLDVIRTGIDIAGCKIKGEC]
MIC [27]: 10 µM (≈ 50.3 µg/mL) | MIC [25]: 5 µM (≈ 25.1 µg/mL) | MIC [28]: 0.6 µM (≈ 3.02 µg/mL) | MIC [29]: 0.3 µM (≈ 1.51 µg/mL) | MIC (Serratia rubidaea X01): 10 µM (≈ 50.3 µg/mL) | MIC [30]: 0.6 µM (≈ 3.02 µg/mL) | MIC [31]: 1.3 µM (≈ 6.54 µg/mL)

Source: DBAASP
